Measurements published in patent US10077261B2, “Imidazolin-5-one derivative useful as FASN inhibitors for the treatment of cancer” (Janssen Pharmaceutica NV, priority 2012, dated 2018).
Like-named read-outs stand apart in the source and are kept apart here.

Target: T1, hFASN enzyme (full length) (Homo sapiens, UniProt P49327)
T1 construct: 10 μL hFASN enzyme (full length, 300 ng, purified in house); made in house
Assay: Fatty Acid Synthase (FASN) inhibition scintillation proximity assay
Assay type: biochemical
Settings: for IC50: read-out: Human FASN pIC50 (converted)
Description: In this assay, inhibition of FASN activity is measured using ^3H-acetyl-CoA and malonyl-CoA as substrates. ^3H-Acetyl CoA is converted to ^3H-palmitate through a series of reactions by the FASN protein, which contains 7 functional domains and carries out 7 enzymatic reactions to ultimately produce ^3H-palmitate. The assay principle is based upon the fact that ^3H-acetyl-CoA is hydrophilic and the end product, ^3H-palmitate is hydrophobic.
10 μL assay buffer (100 mM KH2PO4 pH 7.5, 1 mM DTT) (20 μL in blanks) was added to a 384-well white optiplate plate (Perkin Elmer). 0.9 μL test compound (at concentrations of 30 μM, 10 μM, 3 μM, 1 μM, 0.30 μM, 0.10 μM, 0.03 μM and 0.01 μM)/DMSO and 10 μL hFASN enzyme (full length, 300 ng, purified in house) or 10 μL assay buffer was added to the wells. […] The reaction was stopped by adding 20 μL Streptavidin coupled imaging beads (25 mg/ml). After incubation for 30 minutes at room temperature in the dark, the 384 well plate was centrifuged at 1500 rpm for 3 minutes and was measured after at least 24 hrs by the LEADseeker™, measuring emission using a 610±20 nm pass filter.
where mLC and mHC were the means of the low control wells and high control wells on the plate, after manual exclusion of outliers. A plot of Controlmin versus test compound concentration was fitted to a 4-parameter logistic curve using a non-linear least squares regression method.

[1] = read-out: Human FASN % inhibition @ 10 μM, 10 μM test compound

T1 sequence (P49327 whole entry): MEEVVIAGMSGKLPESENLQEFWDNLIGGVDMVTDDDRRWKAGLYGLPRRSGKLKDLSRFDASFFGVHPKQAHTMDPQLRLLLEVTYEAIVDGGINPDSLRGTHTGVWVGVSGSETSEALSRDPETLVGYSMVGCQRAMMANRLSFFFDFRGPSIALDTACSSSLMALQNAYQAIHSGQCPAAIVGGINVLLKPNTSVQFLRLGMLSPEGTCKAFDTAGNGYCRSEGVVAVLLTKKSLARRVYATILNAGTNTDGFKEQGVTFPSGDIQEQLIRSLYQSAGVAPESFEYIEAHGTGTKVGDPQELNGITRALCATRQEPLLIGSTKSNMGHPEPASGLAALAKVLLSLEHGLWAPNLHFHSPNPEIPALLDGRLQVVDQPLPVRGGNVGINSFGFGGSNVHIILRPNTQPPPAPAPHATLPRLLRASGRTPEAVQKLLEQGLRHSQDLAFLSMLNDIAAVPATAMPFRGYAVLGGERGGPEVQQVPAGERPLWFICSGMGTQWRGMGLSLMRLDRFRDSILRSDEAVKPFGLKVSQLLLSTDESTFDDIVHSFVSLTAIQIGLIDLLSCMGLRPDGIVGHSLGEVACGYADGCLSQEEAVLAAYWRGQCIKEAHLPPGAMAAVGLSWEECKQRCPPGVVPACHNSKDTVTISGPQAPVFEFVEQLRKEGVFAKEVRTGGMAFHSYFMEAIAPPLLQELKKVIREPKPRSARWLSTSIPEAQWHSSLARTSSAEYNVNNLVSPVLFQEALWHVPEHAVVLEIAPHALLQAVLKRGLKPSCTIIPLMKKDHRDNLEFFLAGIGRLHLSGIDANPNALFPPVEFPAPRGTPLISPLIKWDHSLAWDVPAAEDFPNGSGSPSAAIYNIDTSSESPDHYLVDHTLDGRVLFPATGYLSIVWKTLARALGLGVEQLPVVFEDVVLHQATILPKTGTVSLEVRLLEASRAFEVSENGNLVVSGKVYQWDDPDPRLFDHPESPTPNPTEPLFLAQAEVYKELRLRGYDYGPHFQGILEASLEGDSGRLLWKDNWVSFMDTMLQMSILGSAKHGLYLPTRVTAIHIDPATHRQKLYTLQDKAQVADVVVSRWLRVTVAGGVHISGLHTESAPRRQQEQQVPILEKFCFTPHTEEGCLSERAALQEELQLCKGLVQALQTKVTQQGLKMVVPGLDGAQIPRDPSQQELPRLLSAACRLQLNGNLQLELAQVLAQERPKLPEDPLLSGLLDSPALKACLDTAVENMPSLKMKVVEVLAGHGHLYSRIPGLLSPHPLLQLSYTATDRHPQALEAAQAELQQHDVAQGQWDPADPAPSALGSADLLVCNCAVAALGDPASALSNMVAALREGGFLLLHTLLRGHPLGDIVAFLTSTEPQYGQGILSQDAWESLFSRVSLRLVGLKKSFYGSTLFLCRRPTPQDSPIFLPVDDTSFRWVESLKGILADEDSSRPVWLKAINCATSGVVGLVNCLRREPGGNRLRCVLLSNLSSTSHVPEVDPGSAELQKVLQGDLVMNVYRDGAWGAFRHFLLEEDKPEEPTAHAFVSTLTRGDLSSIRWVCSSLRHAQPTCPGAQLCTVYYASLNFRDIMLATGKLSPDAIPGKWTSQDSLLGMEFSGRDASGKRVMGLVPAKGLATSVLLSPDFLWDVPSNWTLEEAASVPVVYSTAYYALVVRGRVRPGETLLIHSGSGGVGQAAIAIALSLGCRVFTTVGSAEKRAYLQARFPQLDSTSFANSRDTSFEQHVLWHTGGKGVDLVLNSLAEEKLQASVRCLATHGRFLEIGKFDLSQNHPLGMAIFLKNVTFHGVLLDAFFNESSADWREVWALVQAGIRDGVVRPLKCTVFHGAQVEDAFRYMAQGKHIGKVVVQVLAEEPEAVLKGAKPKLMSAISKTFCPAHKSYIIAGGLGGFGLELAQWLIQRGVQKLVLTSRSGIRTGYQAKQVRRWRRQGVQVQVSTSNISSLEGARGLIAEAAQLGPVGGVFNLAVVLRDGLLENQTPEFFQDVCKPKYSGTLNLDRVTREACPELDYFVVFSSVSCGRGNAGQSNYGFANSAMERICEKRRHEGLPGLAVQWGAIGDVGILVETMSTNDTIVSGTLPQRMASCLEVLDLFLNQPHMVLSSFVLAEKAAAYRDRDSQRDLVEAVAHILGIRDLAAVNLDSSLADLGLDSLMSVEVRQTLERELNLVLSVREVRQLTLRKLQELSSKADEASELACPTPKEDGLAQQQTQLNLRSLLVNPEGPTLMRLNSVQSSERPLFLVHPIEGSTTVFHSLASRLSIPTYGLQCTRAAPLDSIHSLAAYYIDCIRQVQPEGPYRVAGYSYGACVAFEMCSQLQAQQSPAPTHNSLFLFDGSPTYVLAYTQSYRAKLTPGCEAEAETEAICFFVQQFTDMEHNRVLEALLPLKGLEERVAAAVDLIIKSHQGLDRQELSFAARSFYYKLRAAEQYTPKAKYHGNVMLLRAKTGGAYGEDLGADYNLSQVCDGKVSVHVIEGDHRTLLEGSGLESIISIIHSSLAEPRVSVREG

| Structure (SMILES) | inhibition at 10 µM [1] | IC50 | inhibition at 10 µM (read-out: Human FASN % inhibition @ 10 μM) |
| --- | --- | --- | --- |
| COC(=O)N1CC[C@@H](CN2C(=O)C3(CCOC3)N=C2c2ccc(-c3ccc(-c4cnn(C)c4)cc3)cc2)C1 (stereo partly drawn) [compound 894, (3S)-methyl 3-((2-(4′-(1-methyl-1H-pyrazol-4-yl)-[1,1′-biphenyl]-4-yl)-4-oxo-7-oxa-1,3-diazaspiro[4.4]non-1-en-3-yl)methyl)pyrrolidin-1-carboxylate] | 20% | > 10 µM |  |
| CC(C)N1CCC2(CC1)N=C(c1ccc(-c3ccc4cnccc4c3)cc1)N(CC1CN(C(=O)C3CC3)C1)C2=O [compound 951, 3-((1-(cyclopropanecarbonyl)azetidin-3-yl)methyl)-8-isopropyl-2-(4-(isoquinolin-6-yl)phenyl)-1,3,8-triazaspiro[4.5]dec-1-en-4-one] | 41% | > 10 µM |  |
| CC(=O)N1CCC2(CC1)N=C(c1ccc(-c3ccc4occc4c3)cc1)N(C[C@@H]1CCN(C(=O)C3CC3)C1)C2=O [compound 150, 8-Acetyl-2-[4-(1-benzofuran-5-yl)phenyl]-3-{[(3R)-1-(cyclopropylcarbonyl)pyrrolidin-3-yl]methyl}-1,3,8-triazaspiro[4.5]dec-1-en-4-one] | 113% | 0.105 µM |  |
| Cn1cc(-c2ccc(C3=NC4(CCCC4)C(=O)N3C[C@@H]3CCN(C(=O)C4CC4)C3)cc2)cn1 [compound 13, 3-{[(3R)-1-(Cyclopropylcarbonyl)pyrrolidin-3-yl]methyl}-2-[4-(1-methyl-1H-pyrazol-4-yl)phenyl]-1,3-diazaspiro[4.4]non-1-en-4-one] | 29.7% | > 10 µM |  |
| Cc1cc(-c2ccc(C3=NC4(CC4)C(=O)N3CC3CN(C(=O)C4CC4)C3)cc2)cc2cnn(C)c12 [compound 492, 6-{[1-(Cyclopropylcarbonyl)azetidin-3-yl]methyl}-5-[4-(1,7-dimethyl-1H-indazol-5-yl)phenyl]-4,6-dazaspiro[2.4]hept-4-en-7-one] | 77% | 1 µM |  |
| Cn1ncc2cc(-c3ccc(C4=NC5(CCOCC5)C(=O)N4C[C@@H]4CCN(C(=O)c5nccs5)C4)cc3)ccc21 [compound 959, (R)-2-(4-(1-methyl-1H-indazol-5-yl)phenyl)-3-((1-(thiazole-2-carbonyl)pyrrolidin-3-yl)methyl)-8-oxa-1,3-diazaspiro[4.5]dec-1-en-4-one] | -7% | > 10 µM |  |
| COC(=O)N1CC2(C1)N=C(c1ccc(-c3ccc4c(cnn4C)c3)cc1)N(C[C@@H]1CCN(S(C)(=O)=O)C1)C2=O [compound 917, (S)-methyl 6-(4-(1-methyl-1H-indazol-5-yl)phenyl)-7-((1-(methylsulfonyl)pyrrolidin-3-yl)methyl)-8-oxo-2,5,7-triazaspiro[3.4]oct-5-ene-2-carboxylate] | 2% | > 10 µM |  |
| O=C(C1CC1)N1CC[C@@H](CN2C(=O)C3(CC3)N=C2c2ccc(-c3ccc4occc4c3)s2)C1 [compound 422, 5-[5-(1-Benzofuran-5-yl)thiophen-2-yl]-6-{[(3R)-1-(cyclopropylcarbonyl)pyrrolidin-3-yl]methyl}-4,6-diazaspiro[2.4]hept-4-en-7-one] | 70% | 3.31 µM |  |
| O=C(C1CC1)N1CCC2(CC1)N=C(c1ccc(-c3ccc4occc4c3)cc1)N(C[C@@H]1CCN(C(=O)C3CC3)C1)C2=O [compound 152, 2-[4-(1-Benzofuran-5-yl)phenyl]-8-(cyclopropylcarbonyl)-3-{[(3R)-1-(cyclopropylcarbonyl)pyrrolidin-3-yl]methyl}-1,3,8-triazaspiro[4.5]dec-1-en-4-one] | 123% | 0.123 µM |  |
| O=C(C1CC1)N1CCC(CN2C(=O)C3(CC3)N=C2c2ccc(-c3ccncc3)cc2)CC1 [compound 32, 6-{[1-(Cyclopropylcarbonyl)piperidin-4-yl]methyl}-5-(4-pyridin-4-ylphenyl)-4,6-diazaspiro[2.4]hept-4-en-7-one] | 6.8% | > 10 µM |  |
| Cn1ncc2cc(-c3ccc(C4=NC5(CCOC5)C(=O)N4CC4CN(S(C)(=O)=O)C4)cc3)ccc21 (stereo not shown) [compound 944, 2-(4-(1-methyl-1H-indazol-5-yl)phenyl)-3-((1-(methylsulfonyl)azetidin-3-yl)methyl)-7-oxa-1,3-diazaspiro[4.4]non-1-en-4-one] | 5% | > 10 µM |  |
| O=C(C1CC1)N1CC(CN2C(=O)C3(CC3)N=C2c2ccc(-c3ccc(-n4ccnc4)nc3)cc2)C1 [compound 509, 6-{[1-(Cyclopropylcarbonyl)azetidin-3-yl]methyl}-5-{4-[6-(1H-imidazol-1-yl)pyridin-3-yl]phenyl}-4,6-diazaspiro[2.4]hept-4-en-7-one] | 69% | 2 µM |  |
| CC(C)N1CCC2(CC1)N=C(c1ccc(-c3ccc4[nH]ccc4c3)cc1)N(CC1CN(C(=O)C3CC3)C1)C2=O [compound 187, 3-{[1-(Cyclopropylcarbonyl)azetidin-3-yl]methyl}-2-[4-(1H-indol-5-yl)phenyl]-8-(1-methylethyl)-1,3,8-triazaspiro[4.5]dec-1-en-4-one] | 96.5% | 0.603 µM |  |
| CC(C)C(=O)N1CCC2(CC1)N=C(c1ccc(-c3ccc(-c4cnn(C)c4)cc3)cc1)N(CC1CN(C(=O)C3CC3)C1)C2=O [compound 767, 3-{[1-(Cycloprropylcarbonyl)azetidin-3-yl]methyl}-8-(2-methylpropanoyl)-2-[4′-(1-methyl-1H-pyrazol-4-yl)biphenyl-4-yl]-1,3,8-triazaspiro[4.5]dec-1-en-4-one] | 76% | 1.91 µM |  |
| Cn1ncc2cc(-c3ccc(C4=NC5(CCOC5)C(=O)N4CC4CN(C(=O)[C@H]5CCCO5)C4)cc3)ccc21 (stereo partly drawn) [compound 724, 2-[4-(1-Methyl-1H-indazol-5-yl)phenyl]-3-({1-[(2R)-tetrahydro-furan-2-ylcarbonyl]azetidin-3-yl}methyl)-7-oxa-1,3-diazaspiro[4.4]non-1-en-4-one] | 47% | 4.17 µM |  |
| COC(=O)N1CC2(C1)N=C(c1ccc(-c3ccc(-c4cnn(C)c4)cc3)cc1)N(C[C@@H]1CCN(C(=O)N3CCCC3)C1)C2=O [compound 924, (S)-methyl 6-(4′-(1-methyl-1H-pyrazol-4-yl)-[1,1′-biphenyl]-4-yl)-8-oxo-7-((1-(pyrrolidine-1-carbonyl)pyrrolidin-3-yl)metrhyl)-2,5,7-triazaspiro[3.4]oct-5-ene-2-carboxylate] | 41% | > 10 µM |  |
| Cc1cc2cc(-c3ccc(C4=NC5(CCN(CCO)CC5)C(=O)N4C[C@@H]4CCN(C(=O)C5CC5)C4)cc3)ccc2o1 [compound 173, 3-{[(3R)-1-(Cyclopropylcarbonyl)pyrrolidin-3-yl]methyl}-8-(2-hydroxyethyl)-2-[4-(2-methyl-1-benzofuran-5-yl)phenyl]-1,3,8-triazaspiro[4.5]dec-1-en-4-one] | 97% | 0.38 µM |  |
| COC(=O)N1CC[C@@H](CN2C(=O)C3(CCOCC3)N=C2c2ccc(-c3ccc(-c4cnn(C)c4)cc3)cc2)C1 [compound 658, Methyl (3S)-3-({2-[4′-(1-methyl-1H-pyrazol-4-yl)biphenyl-4-yl]-4-oxo-8-oxa-1,3-diazaspiro[4.5]dec-1-en-3-yl}methyl)pyrrolidin-1-carboxlate] | 52% | 8.71 µM |  |
| O=C(C1CC1)N1CC(CN2C(=O)C3(CCN(C(=O)C(F)(F)F)CC3)N=C2c2ccc(-c3ccc4occc4c3)cc2)C1 [compound 764, 2-[4-(1-Benzofuran-5-yl)phenyl]-3-{[1-(cycloprropylcarbonyl)azetidin-3-yl]methyl}-8-(trifluoroacetyl)-1,3,8-triazaspiro[4.5]dec-1-en-4-one] | 63% | ~4.37 µM |  |
| O=C(c1nccs1)N1CC(CN2C(=O)C3(CCOC3)N=C2c2ccc(-c3ccc4cccnc4c3)cc2)C1 (stereo not shown) [compound 930, 2-(4-(quinolin-7-yl)phenyl)-3-((1-(thiazole-2-carbonyl)azetidin-3-yl)methyl)-7-oxa-1,3-diazaspiro[4.4]non-1-en-4-one] | -14% | > 10 µM |  |
| CC(C)N1CCC2(CC1)N=C(c1ccc(-c3ccc4cnccc4c3)cc1)N(C[C@@H]1CCN(C(=O)C3CC3)C1)C2=O [compound 163] | 110% | 0.229 µM |  |
| O=C(C1CC1)N1CCC(CN2C(=O)C3(CC3)N=C2c2ccc(-c3ccc(F)cc3)cc2)CC1 [compound 110, 6-{[1-(Cyclopropylcarbonyl)piperidin-4-yl]methyl}-5-(4′-fluorobiphenyl-4-yl)-diazaspiro[2.4]hept-4-en-7-one] |  | > 10 µM | 32.6% |
| O=C(C1CC1)N1CC[C@@H](CN2C(=O)C3(CC3)N=C2c2ccc(-c3cccc(OC(F)(F)F)c3)cc2)C1 [compound 146, 6-{[(3R)-1-(Cyclopropylcarbonyl)pyrrolidin-3-yl]methyl}-5-[3′-(trifluoromethoxy)biphenyl-4-yl]-4,6-diazaspiro[2.4]hept-4-en-7-one] | 38% | > 10 µM |  |
